From patent publication US20230210999A1, “TARGETED PROTEASE DEGRADATION (TED) PLATFORM” (EUBULUS BIOTHERAPEUTICS INC., priority 2020, published 2023)

Key:
MV4;11 cells = assay: Cell proliferation experiment (Alamar blue, 72 h), MV4;11; type: cell-based, human; conditions: Homo sapiens, MV4-11, 72 h, MV4;11 cells, 72 h; read-out: Inhibitory activity IC50 of tested compounds on MV4;11 cells
Procedure, shortened: (§1)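 Cells were passaged at least twice, harvested in log phase and plated in 96 wells. Compound in complete medium was added at 5-fold gradient concentrations, duplicates per concentration. After 72 h culture, Alamar blue fluorescence was measured and IC50 fitted.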

Daudi cells = assay: Cell proliferation experiment, Daudi; type: cell-based, human; conditions: Homo sapiens, Daudi, 72 h, Daudi cells, 72 h; read-out: Inhibitory activity IC50 of tested compounds on Daudi cells
Procedure, shortened: as §1

NCIH82 cells = assay: Cell proliferation experiment, NCI-H82; type: cell-based, human; conditions: Homo sapiens, NCI-H82, 72 h, NCIH82 cells, 72 h; read-out: Inhibitory activity IC50 of tested compounds on NCIH82 cells
Procedure, shortened: as §1

HT-29 cells = assay: Cell proliferation experiment, HT-29; type: cell-based; conditions: Homo sapiens; HT-29 cells, 72 h; read-out: Inhibitory activity IC50 of tested compounds on HT-29 cells
Experimental: (§2) Reagents: RPMI-1640 medium, McCoy's 5A medium, IMDM medium, MEM medium, L-15 medium, fetal bovine serum. Penicillin-Streptomycin double antibody, trypsin, etc., 2-mercaptoethanol, NEAA, pyruvate, etc.
(§3) The cells were cultured in conventional ways, and the cells should be passed at least 2 generations before plating. Cells at the logarithmic growth phase were collected, prepared into single cell suspensions and counted. The concentration of cells was adjusted to the desired concentration, and cells were inoculated into a 96-well cell culture plate at 100 μl per well. 100 μL of complete medium of the test compound were added to each well, set up 2 duplicate wells for each concentration, and diluted with a 5-fold gradient, and continued to culture for 72 h. All cells were subjected to IC50 test for corresponding samples. The experimental results are shown in Test Example 4.
(§4) The fluorescence intensity of each well was detected using the Alarm blue method, and IC50 was calculated.
(§5) IC50 was calculated according to the following formula:
(§6) Y=Max+(Min−Max)/[1+(X/IC50)×Slope]
(§7) wherein Min, Max and Slope represent the minimum, maximum and slope respectively.

U-87MG cells = assay: Cell proliferation experiment, U-87MG; type: cell-based; conditions: Homo sapiens; U-87MG cells, 72 h; read-out: Inhibitory activity IC50 of tested compounds on U-87MG cells
Experimental: as §2, §3, §4, §5, §6, §7

Row | Structure (SMILES) | IC50 (MV4;11 cells) | IC50 (Daudi cells) | IC50 (NCIH82 cells) | IC50 (HT-29 cells) | IC50 (U-87MG cells)
1 | CC[C@@H]1C(=O)N(C)c2cnc(Nc3ccc(C(=O)NC4CCN(CCOCCOC[C@H](N)C(=O)Nc5cccc6c5CN(C5CCC(=O)NC5=O)C6=O)CC4)cc3OC)nc2N1C1CCCC1 (some centres unmarked) [Compound 871] | 0.1 to 1 µM | > 1 µM | ≤ 1 µM | > 1 µM | > 1 µM
2 | CC[C@@H]1C(=O)N(C)c2cnc(Nc3ccc(C(=O)NC4CCN(CCOCCOC[C@@H](N)C(=O)Nc5cccc6c5CC(C5CCC(=O)NC5=O)C6=O)CC4)cc3OC)nc2N1C1CCCC1 (some centres unmarked) [Compound 872] | 0.1 to 1 µM | > 1 µM | ≤ 1 µM | > 1 µM | > 1 µM
3 | CC[C@@H]1C(=O)N(C)c2cnc(Nc3ccc(C(=O)NC4CCN(CCOCCNCC#Cc5cccc6c5CN(C5CCC(=O)NC5=O)C6=O)CC4)cc3OC)nc2N1C1CCCC1 (some centres unmarked) [Compound 873] | ≤ 0.1 µM | 0.1 to 1 µM | ≤ 1 µM | ≤ 0.3 µM | 0.1 to 0.5 µM
4 | CC[C@@H]1C(=O)N(C)c2cnc(Nc3ccc(C(=O)NC4CCN(C[C@H](N)COCC#Cc5cccc6c5CN(C5CCC(=O)NC5=O)C6=O)CC4)cc3OC)nc2N1C1CCCC1 (some centres unmarked) [Compound 876] | ≤ 0.1 µM | 0.1 to 1 µM | > 1 µM | > 1 µM | 0.1 to 0.5 µM
5 | CC[C@@H]1C(=O)N(C)c2cnc(Nc3ccc(C(=O)NCCCNCCOCCCC#Cc4cccc5c4CN(C4CCC(=O)NC4=O)C5=O)cc3OC)nc2N1C1CCCC1 (some centres unmarked) [Compound 881] | 0.1 to 1 µM | > 1 µM | > 1 µM | > 1 µM | > 1 µM
6 | CC[C@@H]1C(=O)N(C)c2cnc(Nc3ccc(C(=O)NCCCOCCOCCCNCCC#Cc4cccc5c4CN(C4CCC(=O)NC4=O)C5=O)cc3OC)nc2N1C1CCCC1 (some centres unmarked) [Compound 882] | ≤ 0.1 µM | 0.1 to 1 µM | ≤ 1 µM | 0.3 to 1 µM | ≤ 0.1 µM
7 | CC[C@@H]1C(=O)N(C)c2cnc(Nc3ccc(C(=O)NCCCNCCOCCC#Cc4cccc5c4CN(C4CCC(=O)NC4=O)C5=O)cc3OC)nc2N1C1CCCC1 (some centres unmarked) [Compound 885] | ≤ 0.1 µM | 0.1 to 1 µM | > 1 µM | > 1 µM | 0.1 to 0.5 µM
8 | CC[C@@H]1C(=O)N(C)c2cnc(Nc3ccc(C(=O)NCCCN(C)CCOCCC#Cc4cccc5c4CN(C4CCC(=O)NC4=O)C5=O)cc3OC)nc2N1C1CCCC1 (some centres unmarked) [Compound 886] | ≤ 0.1 µM | 0.1 to 1 µM | > 1 µM | > 1 µM | ≤ 0.1 µM
9 | CC[C@@H]1C(=O)N(C)c2cnc(Nc3ccc(C(=O)NCCOCCOCCCNCCC#Cc4cccc5c4CN(C4CCC(=O)NC4=O)C5=O)cc3OC)nc2N1C1CCCC1 (some centres unmarked) [Compound 894] | ≤ 0.1 µM | 0.1 to 1 µM | > 1 µM | > 1 µM | 0.1 to 0.5 µM
10 | CC[C@@H]1C(=O)N(C)c2cnc(Nc3ccc(C(=O)NCCCNCCOCCOCCC#Cc4cccc5c4CN(C4CCC(=O)NC4=O)C5=O)cc3OC)nc2N1C1CCCC1 (some centres unmarked) [Compound 898] | ≤ 0.1 µM | > 1 µM | > 1 µM | > 1 µM | 0.1 to 0.5 µM
11 | CC[C@@H]1C(=O)N(C)c2cnc(Nc3ccc(C(=O)NC4CCN(CCCOCCCNCCC#Cc5cccc6c5CN(C5CCC(=O)NC5=O)C6=O)CC4)cc3OC)nc2N1C1CCCC1 (some centres unmarked) [Compound 906] | ≤ 0.1 µM | 0.1 to 1 µM | ≤ 1 µM | 0.3 to 1 µM | 0.1 to 0.5 µM
12 | CC[C@@H]1C(=O)N(C)c2cnc(Nc3ccc(C(=O)NC4CCN(CCCNCCOCCCC#Cc5cccc6c5CN(C5CCC(=O)NC5=O)C6=O)CC4)cc3OC)nc2N1C1CCCC1 (some centres unmarked) [Compound 907] | ≤ 0.1 µM | ≤ 0.1 µM | ≤ 1 µM | 0.3 to 1 µM | 0.1 to 0.5 µM
13 | CC[C@@H]1C(=O)N(C)c2cnc(Nc3ccc(C(=O)NC4CCN(CCOCCCNCCC#Cc5cccc6c5CN(C5CCC(=O)NC5=O)C6=O)CC4)cc3OC)nc2N1C1CCCC1 (some centres unmarked) [Compound 908] | ≤ 0.1 µM | ≤ 0.1 µM | ≤ 1 µM | 0.3 to 1 µM | 0.1 to 0.5 µM
